Like-named read-outs stand apart in the source and are kept apart here. Numbered stars: 1 amine (or outer) side, 2 acyl side, 3 side chain; on linkers, the order of the positions; unused ones are H or OH. Bridge positions count the residues as written; N and C are the ends. Square brackets hold non-standard residues; d marks the D form. Peptide text beside a SMILES is read from it. * marks the point of attachment. Pro(trans-4-Ph) = O=C(O)[C@@H]1C[C@@H](c2ccccc2)CN1; C20 diacid = O=C(O)CCCCCCCCCCCCCCCCCCC(=O)*; γGlu = O=C(O)[C@H](CCC(=O)[*:2])N[*:1]; Hyp = O=C(O)[C@@H]1C[C@@H](O)CN1; NMeI = CC[C@H](C)[C@H](NC)C(=O)O; Sar = CNCC(=O)O
Key:
[1] = target: T1, human amylin receptor 3 (hAMYR3) consisting of hCTR2 co-expressed with human Receptor Activity Modifying Protein 3 (hRAMP3) (Homo sapiens, UniProt O60896+P30988); test: hAMYR3 assay: induction of cAMP (AlphaScreen cAMP Assay kit) in COS7 cells expressing hAMYR3; type: cell-based
T1 construct: expressed in transfected cells
T1 sequence (P30988 25-474): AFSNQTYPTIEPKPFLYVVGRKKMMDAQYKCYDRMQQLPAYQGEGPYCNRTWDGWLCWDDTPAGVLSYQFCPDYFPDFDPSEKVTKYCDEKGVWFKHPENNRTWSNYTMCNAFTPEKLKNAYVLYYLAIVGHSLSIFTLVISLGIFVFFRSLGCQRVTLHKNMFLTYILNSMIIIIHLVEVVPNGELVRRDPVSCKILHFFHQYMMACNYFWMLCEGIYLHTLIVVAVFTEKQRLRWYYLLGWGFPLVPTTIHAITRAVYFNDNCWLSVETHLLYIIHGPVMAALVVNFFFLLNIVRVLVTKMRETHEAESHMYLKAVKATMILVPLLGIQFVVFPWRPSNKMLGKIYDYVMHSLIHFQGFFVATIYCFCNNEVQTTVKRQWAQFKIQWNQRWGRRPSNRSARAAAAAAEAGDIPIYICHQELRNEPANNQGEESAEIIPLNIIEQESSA
T1 sequence (O60896 24-148 partner): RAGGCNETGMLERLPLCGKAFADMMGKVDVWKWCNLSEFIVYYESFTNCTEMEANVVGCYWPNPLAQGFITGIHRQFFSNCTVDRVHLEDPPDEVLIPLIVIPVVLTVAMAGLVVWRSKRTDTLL
Description: The cell line COS7, originating from African Green Monkey kidney fibroblast cells, was used for establishment of the stable cell lines described below. The COS7 cellular background was used due to it being RAMP naive, and as such it provides the best available system for testing of the monomeric hCTR and different heterodimeric amylin receptor subtypes functionally generated by introduction of the individual RAMPs.
A cell line expressing the human amylin receptor 3 (hAMYR3) was generated in the COS7 cellular background as stable clones. In brief, hCTR2 (GI:4502547) and hRAMP3 (GI:118572586) were amplified by PCR using primers encoding terminal restriction sites for subcloning. The 5'-end primers additionally encoded a near Kozak consensus sequence to ensure efficient translation. The fidelity of the DNA encoding the receptor was confirmed by DNA sequencing. The PCR products encoding the receptor were subcloned into a proprietary tri-cistronic mammalian expression vector with RAMP3, hCTR2 and neomycin (G418) resistance marker. The mammalian expression vector encoding the receptor was transfected into COS7 cells by a standard liposome transfection method. 48 hours post-transfection, cells were seeded for limited dilution cloning and selected with 1 mg/ml G418 in the culture medium. After 3 weeks, surviving colonies of hAMY3R-expressing cells were picked, propagated and tested in the amylin efficacy assay as described in Example 3 below. The functional generation of the amylin receptor phenotype was verified in the efficacy assay by a left-shifted efficacy response to amylin relative to monomeric calcitonin receptor, and one hAMYR3-expressing clone was chosen for compound profiling.
In vitro activity of test peptides at the hCTR2 and hAMYR3 receptors was assessed by measuring the induction of cAMP following stimulation of the receptor by pramlintide or peptides of the invention using the AlphaScreen® cAMP Assay kit from Perkin-Elmer.
Briefly, COS7 cells expressing hCTR2 (see Example 2, above) were seeded at 30-40,000 cells per well in 96-well microtiter plates coated with 0.01 % poly-L-lysine, and grown for 1 day in culture in 100 µl growth medium [DMEM, 10% FCS, Penicillin (100 IU/ml), Streptomycin (100 µg/ml)]. On the day of analysis, growth medium was removed and the cells were washed once with 200 µl Tyrode buffer [Tyrode's Salts (9.6 g/l), 10 mM HEPES, pH 7.4]. Cells were incubated in 100 µl Tyrode buffer containing increasing concentrations of test peptides, 100 µM IBMX and 0.1% casein for 15 min at 37° C. The reaction was stopped by carefully decanting off the compound/buffer medium and replacing it with lysis/detection buffer (80 µl 0.1 % w/v BSA, 5 mM HEPES, 0.3 % v/v Tween-20 in deionized water). After incubation at room temperature for 10 min., the cAMP content of the resulting cell lysate was estimated according to the AlphaScreen® cAMP Assay manufacturer's instructions. EC50 values and relative efficacy values (in %) compared to reference peptide (Pramlintide) were estimated by computer-aided curve fitting using the 4-parameter logistic (4PL) non-linear model.
The in vitro activity results (expressed as EC50 values) for peptides of the invention and for Pramlintide (reference peptide) are summarized in Table 2, below.

[2] = target: T2, human calcitonin receptor (hCTR2) (Homo sapiens, UniProt P30988); test: hCTR2 assay: induction of cAMP (AlphaScreen cAMP Assay kit) in COS7 cells expressing hCTR2; type: cell-based
T2 construct: expressed in transfected cells
T2 sequence (P30988 25-474): T1 sequence (P30988 25-474)
Outline: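 Stable RAMP-naive COS7 clone expressing hCTR2 was stimulated with increasing peptide concentrations in Tyrode buffer (pH 7.4) with 100 µM IBMX and 0.1% casein for 15 min at 37° C. Cells were lysed and cAMP measured by AlphaScreen. EC50 and efficacy relative to pramlintide came from 4PL curve fits.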

[3] = cAMP induction in COS7 cells expressing hAMYR3, average of a minimum of 3 determinations, read-out: hAMY R3 EC50
[4] = cAMP induction in COS7 cells expressing hCTR2, average of a minimum of 3 determinations, read-out: hCTR2 EC50

Q: `CC[C@H](C)[C@@H](C(=O)N[C@@H](CC(C)C)C(=O)N[C@@H](CO)C(=O)N[C@@H](CO)C(=O)N[C@H](C(=O)N[C@@H](CC(N)=O)C(=O)N[C@H](C(=O)NCC(=O)N[C@@H](CO)C(=O)N[C@@H](CC(N)=O)C(=O)N[C@H](C(=O)N1C[C@H](O)C[C@H]1C(N)=O)[C@@H](C)O)C(C)C)[C@@H](C)O)N(C)C(=O)CN(C)C(=O)[C@H](Cc1ccccc1)NC(=O)[C@H](CC(N)=O)NC(=O)[C@H](CC(N)=O)NC(=O)[C@H](CO)NC(=O)[C@H](CO)NC(=O)[C@H](CCCNC(=N)N)NC(=O)[C@H](Cc1c[nH]cn1)NC(=O)[C@H](CC(C)C)NC(=O)[C@H](Cc1ccccc1)NC(=O)[C@H](CCC(=O)O)NC(=O)[C@H](C)NC(=O)[C@H](CC(C)C)NC(=O)[C@H](CCCNC(=N)N)NC(=O)[C@H](CCC(N)=O)NC(=O)[C@@H](NC(=O)[C@H](C)NC(=O)[C@@H]1CSSC[C@H](NC(=O)[C@H](CCCNC(=N)N)NC(=O)CC[C@H](NC(=O)CCCCCCCCCCCCCCCCCCC(=O)O)C(=O)O)C(=O)N[C@@H](CC(N)=O)C(=O)N[C@@H]([C@@H](C)O)C(=O)N[C@@H](C)C(=O)N[C@@H]([C@@H](C)O)C(=O)N1)[C@@H](C)O` [Compound 106, [19CD]-isoGlu-RC()NTATC()ATQRLAEFLHRSSNNF-Gly(Me)-Ile(Me)-LSSTNVGSNT-Hyp-NH2] ({C20 diacid-γGlu}-RCNTATCATQRLAEFLHRSSNNF[Sar][NMeI]LSSTNVGSNT[Hyp]-NH2; disulfide 2-7) was tested. Which EC50 [1, 3] did it give?
A: The EC50 was 0.14 nM.

Q: And the EC50 [2, 4]?
A: The EC50 was 0.12 nM.

Q: Which EC50 [1, 3] does the source give for `CC[C@H](C)[C@@H](C(=O)N[C@@H](CC(C)C)C(=O)N[C@@H](CO)C(=O)N[C@@H](CO)C(=O)N[C@H](C(=O)N[C@@H](CC(N)=O)C(=O)N[C@H](C(=O)NCC(=O)N[C@@H](CO)C(=O)N[C@@H](CC(N)=O)C(=O)N[C@H](C(=O)N1C[C@H](c2ccccc2)C[C@H]1C(N)=O)[C@@H](C)O)C(C)C)[C@@H](C)O)N(C)C(=O)CN(C)C(=O)[C@H](Cc1ccccc1)NC(=O)[C@H](CC(N)=O)NC(=O)[C@H](CC(N)=O)NC(=O)[C@H](CO)NC(=O)[C@H](CO)NC(=O)[C@H](CCCNC(=N)N)NC(=O)[C@H](Cc1c[nH]cn1)NC(=O)[C@H](CC(C)C)NC(=O)[C@H](Cc1ccccc1)NC(=O)[C@H](CCC(=O)O)NC(=O)[C@H](C)NC(=O)[C@H](CC(C)C)NC(=O)[C@H](CCCNC(=N)N)NC(=O)[C@H](CCC(N)=O)NC(=O)[C@@H](NC(=O)[C@H](C)NC(=O)[C@@H]1CSSC[C@H](NC(=O)[C@H](CCCNC(=N)N)NC(=O)CC[C@H](NC(=O)CCCCCCCCCCCCCCCCCCC(=O)O)C(=O)O)C(=O)N[C@@H](CC(N)=O)C(=O)N[C@@H]([C@@H](C)O)C(=O)N[C@@H](C)C(=O)N[C@@H]([C@@H](C)O)C(=O)N1)[C@@H](C)O` [Compound 113, [19CD]-isoGlu-RC()NTATC()ATQRLAEFLHRSSNNF-Gly(Me)-Ile(Me)-LSSTNVGSNT-Php-NH2] ({C20 diacid-γGlu}-RCNTATCATQRLAEFLHRSSNNF[Sar][NMeI]LSSTNVGSNT[Pro(trans-4-Ph)]-NH2; disulfide 2-7) here?
A: The EC50 was 0.19 nM.

Q: What about the EC50 [2, 4] of the same compound?
A: The EC50 was 0.17 nM.

Q: How did the EC50 [1] turn out when `CC[C@H](C)[C@@H](C(=O)N[C@@H](CC(C)C)C(=O)N[C@@H](CO)C(=O)N[C@@H](CO)C(=O)N[C@H](C(=O)N[C@@H](CC(N)=O)C(=O)N[C@H](C(=O)NCC(=O)N[C@@H](CO)C(=O)N[C@@H](CC(N)=O)C(=O)N[C@H](C(=O)N[C@@H](CO)C(N)=O)[C@@H](C)O)C(C)C)[C@@H](C)O)N(C)C(=O)[C@H](C)NC(=O)CN(C)C(=O)[C@H](Cc1ccccc1)NC(=O)[C@H](CC(N)=O)NC(=O)[C@H](CC(N)=O)NC(=O)[C@H](CO)NC(=O)[C@H](CO)NC(=O)[C@H](CCCNC(=N)N)NC(=O)[C@H](Cc1c[nH]cn1)NC(=O)[C@H](CC(C)C)NC(=O)[C@H](Cc1ccccc1)NC(=O)[C@H](CCC(=O)O)NC(=O)[C@H](C)NC(=O)[C@H](CC(C)C)NC(=O)[C@H](CCCNC(=N)N)NC(=O)[C@H](CCC(N)=O)NC(=O)[C@@H](NC(=O)[C@H](C)NC(=O)[C@@H]1CSSC[C@H](NC(=O)[C@H](CCCNC(=N)N)NC(=O)CC[C@H](NC(=O)CCCCCCCCCCCCCCCCCCC(=O)O)C(=O)O)C(=O)N[C@@H](CC(N)=O)C(=O)N[C@@H]([C@@H](C)O)C(=O)N[C@@H](C)C(=O)N[C@@H]([C@@H](C)O)C(=O)N1)[C@@H](C)O` [Compound 116, [19CD]-isoGlu-RC()NTATC()ATQRLAEFLHRSSNNF-Gly(Me)-A-Ile(Me)-LSSTNVGSNTS-NH2] ({C20 diacid-γGlu}-RCNTATCATQRLAEFLHRSSNNF[Sar]A[NMeI]LSSTNVGSNTS-NH2; disulfide 2-7) was run?
A: The EC50 was 1.6 nM.

Q: What about the EC50 [2] of the same compound?
A: The EC50 was 0.93 nM.

Q: What does the source list for `CC[C@H](C)[C@@H](C(=O)N[C@@H](CC(C)C)C(=O)N[C@@H](CO)C(=O)N[C@@H](CO)C(=O)N[C@H](C(=O)N[C@@H](CC(N)=O)C(=O)N[C@H](C(=O)NCC(=O)N[C@@H](CO)C(=O)N[C@@H](CC(N)=O)C(=O)N[C@H](C(=O)N[C@H](C(N)=O)[C@@H](C)O)[C@@H](C)O)C(C)C)[C@@H](C)O)N(C)C(=O)[C@H](C)NC(=O)CN(C)C(=O)[C@H](Cc1ccccc1)NC(=O)[C@H](CC(N)=O)NC(=O)[C@H](CC(N)=O)NC(=O)[C@H](CO)NC(=O)[C@H](CO)NC(=O)[C@H](CCCNC(=N)N)NC(=O)[C@H](Cc1c[nH]cn1)NC(=O)[C@H](CC(C)C)NC(=O)[C@H](Cc1ccccc1)NC(=O)[C@H](CCC(=O)O)NC(=O)[C@H](C)NC(=O)[C@H](CC(C)C)NC(=O)[C@H](CCCNC(=N)N)NC(=O)[C@H](CCC(N)=O)NC(=O)[C@@H](NC(=O)[C@H](C)NC(=O)[C@@H]1CSSC[C@H](NC(=O)[C@H](CCCNC(=N)N)NC(=O)CC[C@H](NC(=O)CCCCCCCCCCCCCCCCCCC(=O)O)C(=O)O)C(=O)N[C@@H](CC(N)=O)C(=O)N[C@@H]([C@@H](C)O)C(=O)N[C@@H](C)C(=O)N[C@@H]([C@@H](C)O)C(=O)N1)[C@@H](C)O` [Compound 117, [19CD]-isoGlu-RC()NTATC()ATQRLAEFLHRSSNNF-Gly(Me)-A-Ile(Me)-LSSTNVGSNTT-NH2] ({C20 diacid-γGlu}-RCNTATCATQRLAEFLHRSSNNF[Sar]A[NMeI]LSSTNVGSNTT-NH2; disulfide 2-7)?
A: EC50 [1]: 8.2 nM; EC50 [2]: 0.47 nM

Reference: patent publication EP3046573B1, “AMYLIN ANALOGUES” (Zealand Pharma A/S, priority 2013, dated 2015)
